These results are taken from US12570605B2, “Indole compounds, and preparation methods, and uses thereof” (Shenzhen 01 Life Science and Technology Co., Ltd., priority 2021, dated 2026).

“Also recorded” adds a separate entry of the source.

Experiment [1] deals with mouse model with ear AD-like symptoms induced by calcipotriol (MC903). As to the kind of experiment: Mouse model with ear AD-like symptoms induced by calcipotriol (MC903), second batch of experiments (Embodiment 32). To be noted: MC903 5 nmol/mouse every day, 9 days; for reducing ear thicknesses of the mice / reducing the total serum IgE levels of the mice: vs model control group (MC903+EtOH), Mann-Whitney test; for therapeutic effects on AD-like symptoms in the ear of mice (ear inflammation, tissue HE staining, parameters of multiple experiments): screening over both batches. Format: in vivo, BALB/c mouse. On the procedure: (§1) A mouse model with ear AD-like symptoms induced by calcipotriol (MC903) was used to investigate these compounds in terms of the treatment activity for AD.
(§2) Referring to the Patent with a publication number of CN 110368386 A, a mouse model induced by MC903 (Calcipotriene) was prepared, wherein both ears of the BALB/c mouse model were applied with MC903, MC903+indole-3-aldehyde (IAId), or MC903+the compound prepared from the embodiments for 11 consecutive days, respectively, and total serum IgE levels, ear thicknesses, and weight loss in relative to the weight at the beginning of the experiment were tested at the end of the experiment.
(§3) The data shown in the results were average values ±SD of five independently repeated trials. Significance analysis was performed using Mann-Whitney test on the differences of corresponding parameters of the mice with the treatment group (MC903+ethanol (EtOH)), which was only administrated with MC903, wherein * indicated P<0.05, ** indicated P<0.01; *** indicated P<0.001.
Therefore, in the second batch of drug tests, the dosage of MC903 was decreased to 5 nmol/mouse every day, and the test period was reduced to 9 days.
EtOH group was a Blank control group, which was only administrated with ethanol. MC903+ EtOH group was a model control group, which was administrated with Calcipotriene and ethanol. The remaining groups were the groups which were administered with MC903 to construct the model, and then administered with different drugs. Indole-3-aldehyde (IAId) group was the group administered with IAId. Indole-3-methanol (I3C) group was the group administered with I3C. The other compound groups were the groups administered with corresponding compounds.

Experiment [2] shares this test system. In words: Mouse model with ear AD-like symptoms induced by calcipotriol (MC903), first batch of experiments (Embodiment 32). It counts as in vivo, BALB/c mouse. To be noted: MC903 6.9 nmol/mouse every day; for reducing ear thicknesses of the mice / reducing the total serum IgE levels of the mice: both ears, 11 consecutive days, vs model control group (MC903+EtOH), Mann-Whitney test. On the procedure:
as §1, §2, §3
In this batch of experiments, the dosage of MC903, a drug for constructing the models, was 6.9 nmol/mouse every day, and the experimental results of Compounds 1, 2, 3, 6, 7, 19, 20, 28, 29, 30, 34, 37, 38, and 39 in this batch were shown in FIGS. 11 to 13.
EtOH group was a Blank control group, which was only administrated with ethanol. MC903+ EtOH group was a model control group, which was administrated with Calcipotriene and ethanol. The remaining groups were the groups which were administered with MC903 to construct the model, and then administrated with different drugs. Indole-3-aldehyde (IAId) group was the group administered with IAId, indole-3-methanol (I3C) group was the group administered with I3C. The other compound groups were the groups administered with corresponding compounds.

For experiment [3] the test system is unchanged. As to the kind of experiment: Optimum effective concentration in treatment of AD-like symptoms, MC903 mouse model (Embodiment 33). Format: in vivo. The settings on record: vs group only administrated with MC903; for inhibitory effect on systematic inflammation (lower total serum IgE levels and improvement on AD-like symptoms in the mice ear): dosages per Table 11. On the procedure: The above screened compounds having therapeutic effect on AD-like symptoms were selected to further determine the optimum effective concentration.
Referring to the animal model method in the Embodiment 32, dosages of drugs for each group were determined according to the table below, and the optimal effective concentration in treatment of AD-like symptoms was explored by comparing the differences in ear thicknesses, the total serum IgE levels and the weight loss of the mice with those of the treatment group only administrated with MC903.

Consider `O=C(Cc1ccccc1Nc1c(Cl)cccc1Cl)OCOC(=O)n1cc(CO)c2ccccc21` [Compound 27, (2-(2-((2,6-dichlorophenyl)amino)phenyl)acetoxy)methyl 3-(hydroxymethyl)-1H-indole-1-carboxylate], for which, in experiment [1], the “reducing ear thicknesses of the mice” value is on record as “statistically significant difference” and the “reducing the total serum IgE levels of the mice” value was “statistically significant difference”.

Turning to `CCCCCC(=O)OCOC(=O)n1cc(CO)c2ccccc21` [Compound 19, (hexanoyloxy)methyl 3-(hydroxymethyl)-1H-indole-1-carboxylate], the “reducing ear thicknesses of the mice” value in experiment [2] is recorded as “statistically significant difference”.

As to `OCc1c[nH]c2ccccc12` [Compound I3C, indole-3-methanol, reference compound], in experiment [2], the “reducing ear thicknesses of the mice” value was “significantly reduced” and the “reducing the total serum IgE levels of the mice” value is “significantly reduced”.

For the compound `CCCCCCCCCC(=O)OCn1cc(CO)c2ccccc21` [Compound 39, (3-(hydroxymethyl)-1H-indol-1-yl)methyl decanoate], in experiment [2], the “reducing ear thicknesses of the mice” value is listed as “statistically significant difference” and the “reducing the total serum IgE levels of the mice” value is recorded as “statistically significant difference”.

For the compound `CCCCCC(=O)OCn1cc(CO)c2ccccc21` [Compound 37, (3-(hydroxymethyl)-1H-indol-1-yl)methyl hexanoate], the “reducing the total serum IgE levels of the mice” value in experiment [2] was “statistically significant difference”.

Regarding `CCCCCCCCCCCC(=O)OCOC(=O)n1cc(C=O)c2ccccc21` [Compound 4, (dodecanoyloxy)methyl 3-formyl-1H-indole-1-carboxylate], in experiment [3], the “inhibitory effect on systematic inflammation (lower total serum IgE levels and improvement on AD-like symptoms in the mice ear)” value is reported as “good inhibitory effect; also recorded: excellent inhibitory effect”. In experiment [1], the “therapeutic effects on AD-like symptoms in the ear of mice (ear inflammation, tissue HE staining, parameters of multiple experiments)” value was “therapeutic effects”; the “reducing ear thicknesses of the mice” value is “statistically significant difference”; the “reducing the total serum IgE levels of the mice” value was “statistically significant difference; also recorded: excellent effects”.

In the case of `CCCCCCCCCC(=O)OCn1cc(C=O)c2ccccc21` [Compound 30, (3-formyl-1H-indol-1-yl)methyl decanoate], in experiment [2] (11 days), the “therapeutic effects on AD-like symptoms in the ear of mice (combined with ear inflammation and tissue HE staining)” value is “significant therapeutic effects”. For the same compound, in experiment [2], the “reducing ear thicknesses of the mice” value is “statistically significant difference; also recorded: excellent effects” and the “reducing the total serum IgE levels of the mice” value is “statistically significant difference; also recorded: excellent effects”. The “inhibitory effect on systematic inflammation (lower total serum IgE levels and improvement on AD-like symptoms in the mice ear)” value in experiment [3] is “good inhibitory effect; also recorded: excellent inhibitory effect”. Moreover, in experiment [1], the “therapeutic effects on AD-like symptoms in the ear of mice (ear inflammation, tissue HE staining, parameters of multiple experiments)” value was “therapeutic effects”; the “reducing ear thicknesses of the mice” value is given as “statistically significant difference”; the “reducing the total serum IgE levels of the mice” value is “statistically significant difference; also recorded: excellent effects”.

As to `CCCCCCCCCCCCCC(=O)OCn1cc(CO)c2ccccc21` [Compound 41, (3-(hydroxymethyl)-1H-indol-1-yl)methyl tetradecanoate], the “reducing the total serum IgE levels of the mice” value in experiment [1] is on record as “statistically significant difference”.

Take `COCCOCCOCCOCCOCC(=O)OCn1cc(C=O)c2ccccc21` [Compound 34, (3-formyl-1H-indol-1-yl)methyl 2,5,8,11,14-pentaoxahexadecan-16-oate]: in experiment [2], the “reducing ear thicknesses of the mice” value is reported as “statistically significant difference” and the “reducing the total serum IgE levels of the mice” value is listed as “statistically significant difference”.

In the case of `CC(=O)Oc1ccccc1C(=O)OCOC(=O)n1cc(C=O)c2ccccc21` [Compound 8, ((2-acetoxybenzoyl)oxy)methyl 3-formyl-1H-indole-1-carboxylate], in experiment [1], the “reducing ear thicknesses of the mice” value is “statistically significant difference” and the “reducing the total serum IgE levels of the mice” value is recorded as “statistically significant difference”.

On to `CC(=O)Oc1ccccc1C(=O)OCn1cc(C=O)c2ccccc21` [Compound 35, (3-formyl-1H-indol-1-yl)methyl 2-acetoxybenzoate], for which the “inhibitory effect on systematic inflammation (lower total serum IgE levels and improvement on AD-like symptoms in the mice ear)” value in experiment [3] is listed as “good inhibitory effect”. In addition, in experiment [1], the “therapeutic effects on AD-like symptoms in the ear of mice (ear inflammation, tissue HE staining, parameters of multiple experiments)” value is listed as “therapeutic effects” and the “reducing the total serum IgE levels of the mice” value was “statistically significant difference; also recorded: excellent effects”.

Take `O=Cc1c[nH]c2ccccc12` [IAId, indole-3-carboxaldehyde, reference compound]: in experiment [2], the “reducing ear thicknesses of the mice” value is given as “significantly reduced” and the “reducing the total serum IgE levels of the mice” value is listed as “significantly reduced”.

On to `CCCCCCCCCCCC(=O)OCOC(=O)n1cc(CO)c2ccccc21` [Compound 22, (dodecanoyloxy)methyl 3-(hydroxymethyl)-1H-indole-1-carboxylate], for which the “inhibitory effect on systematic inflammation (lower total serum IgE levels and improvement on AD-like symptoms in the mice ear)” value in experiment [3] was “good inhibitory effect”. Also, in experiment [1], the “therapeutic effects on AD-like symptoms in the ear of mice (ear inflammation, tissue HE staining, parameters of multiple experiments)” value is “therapeutic effects” and the “reducing the total serum IgE levels of the mice” value was “statistically significant difference; also recorded: excellent effects”.

In the case of `CC(=O)Oc1ccccc1C(=O)OCOC(=O)n1cc(CO)c2ccccc21` [Compound 26, ((2-acetoxybenzoyl)oxy)methyl 3-(hydroxymethyl)-1H-indole-1-carboxylate], the “reducing the total serum IgE levels of the mice” value in experiment [1] is “statistically significant difference”.

Consider `O=Cc1cn(C(=O)OCOC(=O)Cc2ccccc2Nc2c(Cl)cccc2Cl)c2ccccc12` [Compound 9, (2-(2-((2,6-dichlorophenyl)amino)phenyl)acetoxy)methyl 3-formyl-1H-indole-1-carboxylate], for which the “therapeutic effect on AD-like symptoms in the mouse ear” value in experiment [3] (at different concentration) is given as “significant therapeutic effect”. The “inhibitory effect on systematic inflammation (lower total serum IgE levels and improvement on AD-like symptoms in the mice ear)” value in experiment [3] is given as “good inhibitory effect”. Further, in experiment [1], the “therapeutic effects on AD-like symptoms in the ear of mice (ear inflammation, tissue HE staining, parameters of multiple experiments)” value is on record as “therapeutic effects”; the “reducing ear thicknesses of the mice” value is “statistically significant difference; also recorded: excellent effects”; the “reducing the total serum IgE levels of the mice” value is “statistically significant difference; also recorded: excellent effects”.

Regarding `CCCCCCCC(=O)OCOC(=O)n1cc(CO)c2ccccc21` [Compound 20, (octanoyloxy)methyl 3-(hydroxymethyl)-1H-indole-1-carboxylate], the “reducing ear thicknesses of the mice” value in experiment [2] was “statistically significant difference”.

For `CCCCCCCCCCCCCCCC(=O)OCOC(=O)n1cc(CO)c2ccccc21` [Compound 24, (palmitoyloxy)methyl 3-(hydroxymethyl)-1H-indole-1-carboxylate], the “reducing the total serum IgE levels of the mice” value in experiment [1] was “statistically significant difference”.

In the case of `CCCCCC(=O)OCOC(=O)n1cc(C=O)c2ccccc21` [Compound 1, (hexanoyloxy)methyl 3-formyl-1H-indole-1-carboxylate], in experiment [2], the “reducing ear thicknesses of the mice” value is “statistically significant difference” and the “reducing the total serum IgE levels of the mice” value is listed as “statistically significant difference”.

Take `CCCCCCCCCCCCCCCC(=O)OCn1cc(C=O)c2ccccc21` [Compound 33, (3-formyl-1H-indol-1-yl)methyl palmitate]: the “reducing the total serum IgE levels of the mice” value in experiment [1] is listed as “statistically significant difference”.

With `CCCCCCCCCCCCCC(=O)OCOC(=O)n1cc(CO)c2ccccc21` [Compound 23, (tetradecanoyloxy)methyl 3-(hydroxymethyl)-1H-indole-1-carboxylate], the “reducing the total serum IgE levels of the mice” value in experiment [1] was “statistically significant difference”.

For `CCCCCCCC(=O)OCOC(=O)n1cc(C=O)c2ccccc21` [Compound 2, (octanoyloxy)methyl 3-formyl-1H-indole-1-carboxylate], the “reducing the total serum IgE levels of the mice” value in experiment [2] is “statistically significant difference”.
